The numbers were not newly measured in patent US20140271927A1, “COMPOSITION AND METHOD FOR TREATING NEUROPATHY” (priority 2013, published 2014), which cites them from elsewhere.

For this data set the following is noted: published studies reviewed.

Molecules are shown by their SMILES.

For the molecule `[Cr]` [chromium], the “lowering the HbgAlc” value was 1-2%.
